According to paper PMC8548536, “Establishment of high-throughput screening HTRF assay for identification small molecule inhibitors of Skp2-Cks1” (Scientific Reports, 2021):

What was measured:
[1] = target: T1, S-phase kinase associated protein 2 (Skp2) (Homo sapiens, UniProt P61024+Q13309); test: HTRF Skp2/Skp1-Cks1 binding inhibition assay; also CETSA of Skp2 in SGC-7901 cells
T1 construct: GST-Skp2/Skp1; with Skp1; Cks1 (His6-Cks1)

[2] = target: T1, S-phase kinase associated protein 2 (Skp2); test: HTRF Skp2/Skp1-Cks1 binding inhibition assay

T1 sequence (Q13309 whole entry): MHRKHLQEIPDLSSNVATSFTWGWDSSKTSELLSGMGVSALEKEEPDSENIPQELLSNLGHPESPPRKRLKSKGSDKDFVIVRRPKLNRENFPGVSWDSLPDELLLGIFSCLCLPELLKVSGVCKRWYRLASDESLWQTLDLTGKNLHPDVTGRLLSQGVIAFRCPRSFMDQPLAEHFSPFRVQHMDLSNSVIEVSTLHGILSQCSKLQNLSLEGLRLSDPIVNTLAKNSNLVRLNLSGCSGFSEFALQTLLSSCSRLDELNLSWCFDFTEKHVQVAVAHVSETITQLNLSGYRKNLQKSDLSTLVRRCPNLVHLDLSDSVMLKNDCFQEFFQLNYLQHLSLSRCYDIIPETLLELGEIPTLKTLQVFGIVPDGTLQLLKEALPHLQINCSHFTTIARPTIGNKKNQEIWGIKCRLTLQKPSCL
T1 sequence (P61024 2-79): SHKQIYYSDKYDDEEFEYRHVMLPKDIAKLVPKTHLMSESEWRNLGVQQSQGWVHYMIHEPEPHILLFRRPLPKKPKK
T1 sequence (P63208 2-163 partner): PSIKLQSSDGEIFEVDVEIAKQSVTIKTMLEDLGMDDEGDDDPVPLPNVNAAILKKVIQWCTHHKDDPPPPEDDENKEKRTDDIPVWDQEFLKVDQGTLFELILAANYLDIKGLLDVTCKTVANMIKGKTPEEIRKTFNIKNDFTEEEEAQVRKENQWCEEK

| IC50 [1] [µM] | IC50 [2] [µM] | SMILES |
| --- | --- | --- |
| 2.14 ± 0.76 |  | C=CC(=O)Nc1cccc(-c2nnc(SCc3ccccc3)n2C)c1 [SYK-031] |
|  | 58.7 ± 1.62 | COC(=O)c1ccc(CCc2cc(O)ccc2O)cc1 [Skp2-1, NSC681152] |
| 27.8 ± 1.44 |  | Cc1ccc(S(=O)(=O)Nc2cccc3cccnc23)cc1 [Skp2-2] |
